Assay results from patent publication US20180064681A1, “THERAPEUTIC COMBINATIONS OF CURCUMINOIDS AND FLAVONOIDS” (Primus Pharmaceuticals, Inc., priority 2015, published 2018).

Assays:
IL-1β mRNA [1] = assay: Median effect / combination index analysis (Chou and Talalay) of reduction of IL-1β mRNA levels in chondrocytes; assay type: cell-based; details: Homo sapiens, Chondrocyte, read-out: IC50 (Dm) for reduction of IL-1β mRNA levels
Procedure: We then plotted the dose-response curve (FIG. 21) as log (fa/fu) with respect to log (D) to generate the Median Effect Plot (FIG. 22).
The CI was calculated as:

5-LOX mRNA = 5-LOX mRNA expression in LPS-stimulated human articular chondrocytes (real-time PCR); assay type: cell-based; details: LPS 2 μg/ml, 4 hours; curcumin 10 μg/ml
Procedure: (§1) Human articular chondrocytes were cultured in six well culture Petri dishes at a density of 2.5×10^5 cells/well, in a specific chondrocyte growth medium supplemented with 1% antibiotic—antimycotic mixture, at 37° C. in 5% CO2 humidified incubator. The medium was renewed every 2 days. […] Finally, the cells and medium underwent molecular evaluation 4 hours after the treatments.
(§2) Total RNA was isolated from human chondrocytes for reverse-PCR real time evaluation of IL-1beta, COX2, MMP1, MMP-3, MMP9, MMP13, NF-kB (p50), NF-kB (p65), IL-13 and 5-LOX mRNA (Real Time PCR system, mod 7500, Applied Biosystems, Carlsbad, Calif.) using Trizol Reagent Kit (Life Technologies, Monza, Italy). The first strand of cDNA was synthesized from 5.0 μg total RNA using a high capacity cDNA Archive kit (Applied Biosystems, Carlsbad, Calif.). β-actin mRNA was used as an endogenous control to allow the relative quantification. […] The amplified PCR products were quantified by measuring the calculated cycle thresholds (CT) of IL-1beta, COX2, MMP1, MMP-3, MMP9, MMP13, NF-kB (p50), NF-kB (p65), IL-13 and 5-LOX and β-Actin mRNA. The amounts of specific mRNA in samples were calculated using the 2^ΔΔCT method. The mean value of normal chondrocytes target levels became the calibrator and the results are expressed as the n-fold difference relative to normal controls (relative expression levels). […]

NF-κB p65 mRNA = assay: NF-κB (p65) mRNA expression in LPS-stimulated human articular chondrocytes (real-time PCR); assay type: cell-based; details: LPS 2 μg/ml, 4 hours
Procedure: as §1, §2

MMP-3 mRNA = MMP-3 mRNA expression in LPS-stimulated human articular chondrocytes (real-time PCR); assay type: cell-based; details: LPS 2 μg/ml, 4 hours
Procedure: as §1, §2

MMP-1 mRNA = MMP-1 mRNA expression in LPS-stimulated human articular chondrocytes (real-time PCR); assay type: cell-based; details: LPS 2 μg/ml, 4 hours
Procedure: as §1, §2

COX-2 mRNA = assay type: cell-based, human
Procedure: as §1, §2

IL-1β mRNA [2] = assay: IL-1β mRNA expression in LPS-stimulated human articular chondrocytes (real-time PCR); assay type: cell-based; details: LPS 2 μg/ml, 4 hours
Procedure: as §1, §2

IL-13 mRNA = IL-13 mRNA expression in LPS-stimulated human articular chondrocytes (real-time PCR); assay type: cell-based; details: LPS 2 μg/ml, 4 hours; curcumin alone 5 or 10 μg/ml
Procedure: as §1, §2

Compound: COc1cc(/C=C/C(=O)CC(=O)/C=C/c2ccc(O)c(OC)c2)ccc1O [curcumin]
- IC50 (IL-1β mRNA [1]): 14.3 µM
- 5-LOX mRNA expression (5-LOX mRNA): blunted
- NF-κB p65 mRNA expression (NF-κB p65 mRNA; curcumin 5 μg/ml): failed to result in any change
- NF-κB p65 mRNA expression (NF-κB p65 mRNA; curcumin 10 μg/ml alone): more pronounced decrease
- MMP-3 mRNA expression (MMP-3 mRNA; curcumin 5 μg/ml alone): significantly reduced
- MMP-3 mRNA expression (MMP-3 mRNA; curcumin 10 μg/ml): additional decrease in a concentration-dependent manner
- MMP-1 mRNA expression (MMP-1 mRNA; curcumin 5 μg/ml alone): significantly reduced
- MMP-1 mRNA expression (MMP-1 mRNA; curcumin 10 μg/ml): additional decrease in a concentration-dependent manner
- COX-2 mRNA expression (COX-2 mRNA): significantly reduced
- IL-1β mRNA expression (IL-1β mRNA [2]; curcumin 5 μg/ml): significantly blunted
- IL-1β mRNA expression (IL-1β mRNA [2]; curcumin 10 μg/ml alone): further decreased
- IL-13 mRNA expression (IL-13 mRNA): significantly increased in a dose dependent manner
